From publication PMC10319141, “Imidazoquinolines with improved pharmacokinetic properties induce a high IFNα to TNFα ratio in vitro and in vivo” (Frontiers in Immunology, 2023)

How the values were obtained:
[1] = target: T1, human TLR8 (Homo sapiens, UniProt Q9NR97); test: HEK-Blue hTLR8 SEAP reporter assay; type: cell-based; conditions: for TLR8 activity rel. to assay max: average maximal SEAP secretion relative to maximum secretion observed in the assay; for SEAP secretion from HEK-Blue hTLR-8: in words
T1 construct: host or cells: HEK blue hTLR8 reporter cells
T1 sequence (Q9NR97 27-1041): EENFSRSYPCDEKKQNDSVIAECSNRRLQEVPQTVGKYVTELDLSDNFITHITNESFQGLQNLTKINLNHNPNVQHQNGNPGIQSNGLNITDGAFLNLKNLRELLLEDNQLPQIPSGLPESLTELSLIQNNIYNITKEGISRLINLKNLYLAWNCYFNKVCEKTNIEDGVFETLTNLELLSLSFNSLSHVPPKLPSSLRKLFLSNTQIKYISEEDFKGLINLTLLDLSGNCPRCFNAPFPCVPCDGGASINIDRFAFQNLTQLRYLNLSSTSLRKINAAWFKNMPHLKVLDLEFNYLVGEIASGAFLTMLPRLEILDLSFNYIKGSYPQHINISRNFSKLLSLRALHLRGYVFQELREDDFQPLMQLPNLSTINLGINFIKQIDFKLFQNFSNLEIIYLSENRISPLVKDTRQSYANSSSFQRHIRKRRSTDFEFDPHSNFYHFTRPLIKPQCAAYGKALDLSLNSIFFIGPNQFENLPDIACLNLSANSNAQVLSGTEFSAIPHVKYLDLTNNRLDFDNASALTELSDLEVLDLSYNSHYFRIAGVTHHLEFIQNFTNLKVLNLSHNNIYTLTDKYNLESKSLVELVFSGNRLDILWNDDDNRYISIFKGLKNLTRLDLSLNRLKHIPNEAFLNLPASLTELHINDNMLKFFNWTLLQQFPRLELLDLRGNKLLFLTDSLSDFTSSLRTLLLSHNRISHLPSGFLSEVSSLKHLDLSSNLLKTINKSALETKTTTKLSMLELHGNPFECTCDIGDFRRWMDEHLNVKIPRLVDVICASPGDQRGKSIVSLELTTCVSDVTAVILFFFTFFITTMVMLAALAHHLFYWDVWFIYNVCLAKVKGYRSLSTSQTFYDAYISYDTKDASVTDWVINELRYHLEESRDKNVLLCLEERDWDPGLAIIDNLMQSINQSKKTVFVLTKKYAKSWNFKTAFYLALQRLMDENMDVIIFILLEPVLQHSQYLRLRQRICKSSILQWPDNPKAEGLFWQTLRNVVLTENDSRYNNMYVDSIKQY
Protocol: HEK blue hTLR7 or hTLR8 reporter cells (Invivogen) were cultivated in DMEM High Glucose (Biowest) according to the manufacturer’s instructions. Cells were treated with test compounds and controls at various concentrations in serum-free DMEM and incubated at 37°C, 5% CO2 for 24 h before supernatants were collected.
Relative secreted embryonic alkaline phosphatase (SEAP) activity in the supernatants was determined by quantification of para-Nitrophenyl Phosphate (pNPP)-turnover. Supernatants were diluted 10-fold in a solution containing 1 mM MgCl2, 1 M diethanolamine and 1 mg/mL pNPP and incubated at RT for 15 min before the reaction was stopped by the addition of 0.25 volumes of 1 M NaOH. Absorbance was measured at 405 nm on a Versamax microplate reader (Molecular Devices) and normalized to the mean of >5 solvent controls.
To obtain reliable estimates, replicate measurements of a minimum of 2 experiments were normalized to the maximal SEAP activity of a compound in a given experiment and pooled before fitting a non-linear function to the data.

[2] = system: TNFα and IFNα in peripheral plasma; test: Cytokine AUC in peripheral plasma after activity-adjusted s.c. doses (Figure 5C, Table 2 bottom); type: in vivo, C57BL/6 mice; conditions: for IFNα AUC / TNFα AUC: 8 h period; for IFNα AUC / TNFα AUC / INFα AUC / TNFα AUC: doses adjusted to activity (bottom section); for dose ratio, times the molar dose of RSQ leading to comparable amounts of IFNα / dose ratio, times the molar dose of RSQ necessary to induce similar levels of TNFα: comparison of AUC, s.c.
Protocol: Cytokine concentrations in samples were quantified either by ELISA (hTNFα, R&D Systems; hIFNα, Mabtech) or cytometric bead arrays (CBA, LegendPlex mouse anti-virus response panel, BioLegend) according to the manufacturer’s instructions. CBAs were acquired on a ZE5 Cell Analyzer (Bio-Rad) and analyzed using the LegendPlex Software Suite (Qognit/BioLegend). Absorbance of ELISA-samples was quantified using a Versamax microplate reader (Molecular Devices).
Formulation. Test compounds were prepared for application in either 1% Tween 80, 9% PEG400 in ultrapure water (Biowest) (i.v., i.p., p.o. application) or 5 mM citric acid in 0.9% saline (Braun) (subcutaneous application). If compounds were administered subcutaneously, injections were carried out into the neck crease.
Collection of Samples. Mice were bled from the tail vein at various timepoints. Heparin (Sigma) or K2-EDTA (Sigma) was added to blood samples to a final […] concentration of 10-15 Unit or 5 mM. Plasma was generated by centrifugation at 6800xg for 8 min at 4°C and stored at -80°C until analyzed by ELISA or CBA. Animals were sacrificed after the indicated time points by CO2 inhalation. Heart blood and organs for compound quantification by HPLC-MS/MS were collected post mortem and stored at –20°C until extracted as described above.
Compound concentration in (A) peripheral blood collected via tail bleeding before, 15, 30 60, 120, 240, 360 and 480 min after s.c. compound application and (B) organs collected after 8 h was assessed via HPLC-MS/MS. (A, B) Data are presented as mean ± SD. (C) Levels of TNFα and IFNα as well as (D) IL6, CXCL1, CCL2, IFNβ, IFNγ and IL10 in tail plasma over time were determined via cytometric bead array. Area under the curve (AUC) of each cytokine was plotted against compound concentration. Data are represented as mean ± 95% confidence interval.

Row | SMILES | TLR8 activity rel. to assay max [1] | SEAP secretion from HEK-Blue hTLR-8 [1] | IFNα AUC ([2]; 1 µmol/kg s.c.) [pg·min/mL] | TNFα AUC ([2]; 1 µmol/kg s.c.) [pg·min/mL] | INFα AUC / TNFα AUC ([2]; 1 µmol/kg s.c.) | IFNα AUC ([2]; 3 µmol/kg s.c.) [pg·min/mL] | TNFα AUC ([2]; 3 µmol/kg s.c.) [pg·min/mL] | INFα AUC / TNFα AUC ([2]; 3 µmol/kg s.c.) | IFNα AUC ([2]; 6 µmol/kg s.c.) [pg·min/mL] | TNFα AUC ([2]; 6 µmol/kg s.c.) [pg·min/mL] | INFα AUC / TNFα AUC ([2]; 6 µmol/kg s.c.) | IFNα AUC ([2]; 12 µmol/kg s.c.) [pg·min/mL] | TNFα AUC ([2]; 12 µmol/kg s.c.) [pg·min/mL] | INFα AUC / TNFα AUC ([2]; 12 µmol/kg s.c.) | dose ratio, times the molar dose of RSQ leading to comparable amounts of IFNα [2] | dose ratio, times the molar dose of RSQ necessary to induce similar levels of TNFα [2] | IFNα AUC ([2]; 0.1 µmol/kg s.c.) [pg·min/mL] | TNFα AUC ([2]; 0.1 µmol/kg s.c.) [pg·min/mL] | IFNα AUC ([2]; 0.3 µmol/kg s.c.) [pg·min/mL] | TNFα AUC ([2]; 0.3 µmol/kg s.c.) [pg·min/mL]
1 | CCCCc1nc2c(N)nc3ccccc3c2n1CC1CCN(C(=O)CN(C)CC(=O)N(C)[C@H]2C[C@@H](C)O[C@@H](O[C@@H]3[C@@H](C)[C@H](O[C@H]4C[C@@](C)(OC)[C@@H](O)[C@H](C)O4)[C@@H](C)C(=O)O[C@H](CC)[C@@](C)(O)[C@H](O)[C@@H](C)N(C)C[C@H](C)C[C@@]3(C)O)[C@@H]2O)CC1 [A2-mac] | 4% ± 1% | close to baseline |  |  |  |  |  |  |  |  |  |  |  |  |  |  |  |  |  | 
2 | CCCCc1nc2c(N)nc3ccccc3c2n1CCC1CCNCC1 [A1] | 11% ± 8% | close to baseline | 70000 | 9700 | 7 | 490000 | 11000 | 44 | 1.1e+06 | 20000 | 58 | 1.9e+06 | 44000 | 44 | 6-10 times | 30-40 times |  |  |  | 
3 | CCCCc1nc2c(N)nc3ccccc3c2n1CCC1CCN(C(=O)CN(C)CC(=O)N(C)C2CC(C)OC(OC3C(C)C(OC4CC(C)(OC)C(O)C(C)O4)C(C)C(=O)OC(CC)C(C)(O)C(O)C(C)N(C)CC(C)CC3(C)O)C2O)CC1 (stereo not shown) [A1-mac] | 5% ± 3% | close to baseline | 33000 | 7200 | 5 | 300000 | 14000 | 22 | 1.6e+06 | 38000 | 42 | 1.9e+06 | 65000 | 30 | 6-10 times | 30-40 times |  |  |  | 
4 | CCOCc1nc2c(N)nc3ccccc3c2n1CC(C)(C)O [RSQ, Resiquimod, reference compound] | 96% ± 4% |  | 1.1e+06 | 120000 |  | 970000 | 150000 |  |  |  |  |  |  |  |  |  | 110000 | 17000 | 560000 | 50000
